According to patent US6514954B1, “Pesticidal compositions” (priority 1997, dated 2003):

System: Myzus persicae
Experiment: Example B6: action against Myzus persicae (leaf circle bioassay, sprayed Capsicum plants)
Format: in vivo
Settings: 96 h, read-out: Action % (mortality of nymphs)
Text: A synergistic effect is always present if the action EA of the combination of an active compound of the formula (A) with one of the active compounds (I) to (XXXI) is greater than the sum of the action of the active compounds applied individually:
However, the pesticidal action EA to be expected for a given combination of two pesticides can also be calculated as follows (cf. COLBY, S. R., “Calculating synergistic and antagonistic response of herbicide combinations”, Weeds 15, Pages 20-22, 1967): [formula]
X=Percent mortality on treatment with the compound of the formula (A) at a rate of application of p kg per hectare compared with the untreated control (=0%).
Y=Percent mortality on treatment with a compound (I) to (XXXI) at a rate of application of q kg per hectare compared with the untreated control.
EA=Expected pesticidal action (percent mortality compared with the untreated control) after treatment with the compound of the formula (A) and a compound (I) to (XXXI) at a rate of application of p+q kg of active compound per hectare.
If the action actually observed is greater than the expected value EA, synergism exists.
Action Against Myzus persicae
Capsicum plants (Capsicum annuum L.) 6 weeks old are sprayed with an aqueous emulsion spray liquor which comprises the individual compounds and mixtures according to the following table. The plants were placed in a greenhouse until determination of the activity.
The activity against Myzus persicae was measured in bioassays. 2-4 hours after application, circles of leaf are stamped out, placed with the upper side down on agar in Petri dishes and infested with an M. persicae mixed population consisting of 40-50 non-synchronous individuals. A total of 9 circles of leaf per concentration are used. The Petri dishes are covered with a cotton wool filter, closed with a plastic lid and placed in a climatically controlled chamber for plants. One day after infestation, the circles of leaf are cleaned of adults, skins and nymphs, so that only 25-40 nymphs laid overnight remain per circle of leaf. Four days after infestation, the mortality is determined by counting the dead and living nymphs. The tests are carried out 3 times. The results shown in the table are the average values of the tests.

Q: How did the mortality at 0.1 ppm (Conc. 0.1 ppm, four days after infestation, average of 3 tests) turn out when `CN1COCN(Cc2cnc(Cl)s2)C1=N[N+](=O)[O-]` [A.5, 5-(2-chlorothiazol-5-ylmethyl)-3-methyl-4-nitroimino-perhydro-1,3,5-oxadiazine] was run?
A: Its mortality at 0.1 ppm is 5.9%.

Q: What about the mortality at 0.2 ppm (Conc. 0.2 ppm, four days after infestation, average of 3 tests) of the same molecule?
A: Its mortality at 0.2 ppm is 35%.

Q: With `CC1(C)C(C=C(Cl)Cl)C1C(=O)OC(C#N)c1cccc(Oc2ccccc2)c1` (racemic) [Cypermethrin high-cis, (RS)-α-cyano-3-phenoxybenzyl (1RS)-cis-trans-3-(2,2-dichlorvinyl)-1,1-dimethylcyclo-propanecarboxylate] as the molecule, how does the mortality at 600 ppm (Conc. 600 ppm, four days after infestation, average of 3 tests) read?
A: Its mortality at 600 ppm is 8.2%.

Q: With `CCCSP(=O)(OCC)Oc1ccc(Br)cc1Cl` (centres unmarked) [Profenofos, O-4-bromo-2-chlorophenyl O-ethyl S-propyl phosphorothioate] as the molecule, how does the mortality at 35 ppm read?
A: Its mortality at 35 ppm is 12.3%.

Q: `CC1=NNC(=O)N(N=Cc2cccnc2)C1` [Pymetrozine, 2,3,4,5-tetrahydro-3-oxo-4-[(pyridin-3-yl)-methyleneamino]-6-methyl-1,2,4-triazine] was tested. Which mortality at 0.3 ppm (Conc. 0.3 ppm, four days after infestation, average of 3 tests) did it give?
A: The mortality at 0.3 ppm was 38.4%.
